In brackets after ≈: the same amount, converted by molar mass.
System: Spodoptera littoralis
Test: Insecticidal bioassay screening (castor leaf dip) against 2nd and 4th instar larvae
Format: in vivo
Settings: for Toxic ratio: 72 h, fenoxycarb's LC50/compound's LC50 ×100
Procedure: Five concentrations (200, 100, 50, 25, 12.5 ppm) were designed for this synthetic compound and the reference fenoxycarb compound as the dynamic ingredients based on ppm via diluting the commercial formulation.
In this experiment, castor leaves were immersed in each of the previously prepared concentrations of the components for 10 seconds and then left to dry for 60 minutes.
Larvae of the second and fourth instars of each checked strain were prepared with treated leaves in gauze-covered glass containers for 72 hrs. An untreated control was made in which leaves were dipped in triton x-100 and distilled water only. Then, the preserved leaves were removed & fresh, untreated leaves were provided for 72 hours. Three replicates (10 larvae each) were checked for each concentration. Daily inspection was carried out for all treatments and mortality percentages were recorded 3 days (72 hours) after treatment. The average mortality percentage was corrected employing Abbott's formula. The corrected mortality rate for each of the previously synthesized compounds was statistically calculated according to Finney (1970). Through this rate, the corresponding concentration test lines (LDP lines) were assessed. Fifty and ninety percent mortality was determined, and the regression values for the checked products were previously evaluated.

Question: How did the LC50 (2nd instar larvae of S. littoralis, after 72 h of treatment) turn out when `CCOC(=O)NCCOc1ccc(Oc2ccccc2)cc1` [Fenoxycarb] was run?
Answer: 2.73 ppm

Question: And the Toxic ratio (2nd instar larvae)?
Answer: 100

Question: And the LC50 (4th instar larvae of S. littoralis, after 72 h of treatment)?
Answer: 43.231 ppm

Question: And the Toxic ratio (4th instar larvae)?
Answer: 1

Question: And the LC50 (Spodoptera littoralis, foliar)?
Answer: 2.73 µg/mL (≈ 9.06 µM)
